# According to patent publication US8580842B2, “Heteroaryl-substituted 1,3-dihydroindol-2-one derivatives and medicaments containing them” (Abbott GmbH & Co. KG, priority 2003, dated 2013):
# Where a name gives a salt, the structure may show the parent alone.
# Target: T1, human V1b receptors (Homo sapiens, UniProt P47901)
# T1 construct: expressed in transfected cells; host or cells: CHO-K1 (membrane preparation V1b-3H2)
# T1 sequence (P47901 1-424): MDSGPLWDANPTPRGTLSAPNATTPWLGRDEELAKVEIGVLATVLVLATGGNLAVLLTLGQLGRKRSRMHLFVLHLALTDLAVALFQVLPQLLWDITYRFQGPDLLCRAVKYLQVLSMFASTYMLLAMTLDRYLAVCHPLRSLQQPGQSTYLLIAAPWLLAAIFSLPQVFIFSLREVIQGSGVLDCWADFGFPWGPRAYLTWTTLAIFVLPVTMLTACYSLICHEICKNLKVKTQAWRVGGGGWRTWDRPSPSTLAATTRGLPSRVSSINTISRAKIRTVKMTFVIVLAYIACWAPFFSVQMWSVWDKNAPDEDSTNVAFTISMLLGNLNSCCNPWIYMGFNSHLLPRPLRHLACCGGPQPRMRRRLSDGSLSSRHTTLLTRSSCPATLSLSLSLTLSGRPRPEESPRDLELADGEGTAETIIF
# Assay: Vasopressin V1b receptor binding assay
# Settings: membranes from CHO-K1 cells expressing human V1b receptors, displacement of 1.5 nM 3H-AVP; read-out: Binding affinity for the vasopressin V1b receptor
# Protocol: Vasopressin V1b Receptor Binding Assay
# The binding of the compounds of this invention to the vasopressin V1b receptor was determined with the following assay:
# Compounds were dissolved in a concentration of 10^−2 M or 10^−3 M in DMSO. Further dilutions were performed with water.
# The procedure for the binding assay was based on the method of Tahara et al. (Tahara A et al., Brit. J. Pharmacol. 125, 1463-1470 (1998)). Assays (0.250 ml) consisted of membranes (58 μg protein) from CHO-K1 cells permanently expressing human V1b receptors (preparation V1b-3H2, containing protease inhibitors, Roche complete Mini #1836170), 1.5 nM ^3H-AVP (8-Arg-vasopressin, NET 800) in incubation buffer (total binding) and different concentrations of test compound (displacement). Non-specific binding was defined with 10^−6 M AVP. Assays were performed in triplicate.
# Incubation buffer: 50 mM Tris, 10 mM MgCl2, 0.1% BSA adjusted to pH 7.4 with HCl.
# After incubation, 60 min at room temperature, bound and free radioligand was separated by filtration under vacuum through Whatman GF/B glass fibre mats using a Skatron cell harvester 7000.
# Liquid scintillation counting was performed in beta-counters, Tricarb model 2000 or 2200CA (Packard). Dpm were calculated by a programme with standardisation using a standard quench series.
# Evaluation of binding parameters was performed by non-linear regression analysis with SAS. The strategy of this program is similar to the program LIGAND described by Munson and Rodbard (Munson PJ and Rodbard D, Analytical Biochem 107, 220-239 (1980)).
row,Ki [nM],Compound
1,< 50,"COc1ccc(S(=O)(=O)N2C(=O)C(N[C@@H](C)C(=O)N(C)C)(c3cccnc3OC)c3cc(Cl)ccc32)c(OC)c1 (single isomer, unassigned) [Example 221]"
2,< 50,"COc1ccc(S(=O)(=O)N2C(=O)C(c3ncccc3C)(N3C[C@H](O)C[C@H]3C(=O)N(C)C)c3cc(Cl)ccc32)c(OC)c1 (single isomer, unassigned) [Example 222]"
3,50 to 500,"COc1ccc(S(=O)(=O)N2C(=O)C(c3cccnc3OC)(N3C[C@H](O)C[C@H]3C(=O)N(C)C)c3ccccc32)c(OC)c1 (single isomer, unassigned) [Example 225]"
4,50 to 500,"COc1ccc(S(=O)(=O)N2C(=O)C(c3cccnc3OC)(N3CCC[C@H]3C(=O)N(C)C)c3ccccc32)c(OC)c1 (single isomer, unassigned) [Example 226]"
5,< 50,"COc1ccc(S(=O)(=O)N2C(=O)C(c3cccnc3OC)(N3CCC[C@H]3C(=O)N(C)C)c3cc(Cl)ccc32)c(OC)c1 (single isomer, unassigned) [Example 227]"
6,< 50,"COc1ccc(S(=O)(=O)N2C(=O)C(c3cccnc3OC)(N3C[C@H](O)C[C@H]3C(=O)N(C)C)c3cc(OC)ccc32)c(OC)c1 (single isomer, unassigned) [Example 230, fumarate]"
7,< 50,"COc1ccc(S(=O)(=O)N2C(=O)C(c3cccnc3OC)(N3C[C@H](O)C[C@H]3C(=O)N(C)C)c3cc(C#N)ccc32)c(OC)c1 (single isomer, unassigned) [Example 232]"
8,< 50,"COc1ccc(S(=O)(=O)N2C(=O)C(c3ccncc3OC)(N3C[C@H](O)C[C@H]3C(=O)N(C)C)c3cc(Cl)ccc32)c(OC)c1 (single isomer, unassigned) [Example 234]"
9,< 50,"COc1ccc(S(=O)(=O)N2C(=O)C(c3cnc(OC)nc3OC)(N3C[C@H](O)C[C@H]3C(=O)N(C)C)c3cc(Cl)ccc32)cc1 (single isomer, unassigned) [Example 236]"
10,< 50,"COc1ccc(S(=O)(=O)N2C(=O)C(c3cccnc3OC)(N3CCCC[C@H]3C(=O)N(C)C)c3cc(Cl)ccc32)c(OC)c1 (single isomer, unassigned) [Example 237]"
11,< 50,"COc1ccc(S(=O)(=O)N2C(=O)C(c3ccc(OC)nc3OC)(N3C[C@H](O)C[C@H]3C(=O)N(C)C)c3cc(Cl)ccc32)c(OC)c1 (single isomer, unassigned) [Example 238]"
12,< 50,"CCOc1ncccc1C1(N2C[C@H](O)C[C@H]2C(=O)N(C)C)C(=O)N(S(=O)(=O)c2ccc(OC)cc2OC)c2ccc(Cl)cc21 (single isomer, unassigned) [Example 239]"
13,< 50,"COc1ccc(S(=O)(=O)N2C(=O)C(c3cccnc3OC)(N3C[C@H](O)C[C@H]3C(=O)N(C)C)c3cc(Cl)ccc32)cc1 (single isomer, unassigned) [Example 240]"
14,50 to 500,"COc1ccccc1S(=O)(=O)N1C(=O)C(c2cccnc2OC)(N2C[C@H](O)C[C@H]2C(=O)N(C)C)c2cc(Cl)ccc21 (single isomer, unassigned) [Example 241]"
15,< 50,"COc1ccc(S(=O)(=O)N2C(=O)C(c3cccnc3OC)(N3C[C@H](O)C[C@H]3C(=O)N(C)C)c3cc(C#N)ccc32)cc1 (single isomer, unassigned) [Example 242]"
16,< 50,"COc1ccc(S(=O)(=O)N2C(=O)C(c3nccnc3OC)(N3C[C@H](O)C[C@H]3C(=O)N(C)C)c3cc(I)ccc32)c(OC)c1 (single isomer, unassigned) [Example 243]"
17,< 50,"COc1ccc(S(=O)(=O)N2C(=O)C(c3cccnc3OC)(N3C[C@H](O)C[C@H]3C(=O)N(C)C)c3cc(OC(F)(F)F)ccc32)c(OC)c1 (single isomer, unassigned) [Example 245]"

row,Ki [nM],Compound
1,< 50,"COc1ccc(S(=O)(=O)N2C(=O)C(c3cccnc3OC)(N3C[C@H](F)C[C@H]3C(=O)N(C)C)c3cc(Cl)ccc32)c(OC)c1 (single isomer, unassigned) [Example 246]"
2,< 50,"COc1ccccc1C1(N2C[C@H](O)C[C@H]2C(=O)N(C)C)C(=O)N(S(=O)(=O)c2cc(C)ccn2)c2ccc(Cl)cc21 (single isomer, unassigned) [Example 252]"
3,< 50,"COc1ccccc1C1(N2C[C@H](O)C[C@H]2C(=O)N(C)C)C(=O)N(S(=O)(=O)c2cccc(C)n2)c2ccc(Cl)cc21 (single isomer, unassigned) [Example 253]"
4,50 to 500,"COc1ccc(S(=O)(=O)N2C(=O)C(c3cccnc3OC)(N3CC[C@H]3C(=O)N(C)C)c3cc(Cl)ccc32)c(OC)c1 (single isomer, unassigned) [Example 255]"
5,< 50,"COc1ccccc1C1(N2C[C@H](O)C[C@H]2C(=O)N(C)C)C(=O)N(S(=O)(=O)c2sccc2OC)c2ccc(Cl)cc21 (single isomer, unassigned) [Example 256]"
6,< 50,"COc1ncccc1C1(N2C[C@H](O)C[C@H]2C(=O)N(C)C)C(=O)N(S(=O)(=O)c2cccs2)c2ccc(Cl)cc21 (single isomer, unassigned) [Example 270]"
7,50 to 500,"COc1ncccc1C1(N2C[C@H](O)C[C@H]2C(=O)N(C)C)C(=O)N(S(=O)(=O)c2cccs2)c2ccc(C#N)cc21 (single isomer, unassigned) [Example 277]"
8,< 50,"COc1ccc(C2(N3C[C@H](O)C[C@H]3C(=O)N(C)C)C(=O)N(S(=O)(=O)c3cccs3)c3ccc(Cl)cc32)c(OC)n1 (single isomer, unassigned) [Example 280]"
9,50 to 500,"COc1ncc(C2(N3C[C@H](O)C[C@H]3C(=O)N(C)C)C(=O)N(S(=O)(=O)c3cccs3)c3ccc(Cl)cc32)c(OC)n1 (single isomer, unassigned) [Example 281]"
10,< 50,"COc1ncc(C2(N3C[C@H](O)C[C@H]3C(=O)N(C)C)C(=O)N(S(=O)(=O)c3ccc(C)cn3)c3ccc(Cl)cc32)c(OC)n1 (single isomer, unassigned) [Example 282]"
11,50 to 500,"COc1ccsc1S(=O)(=O)N1C(=O)C(c2cccnc2OC)(N2C[C@H](O)C[C@H]2C(=O)N(C)C)c2cc(OC(F)(F)F)ccc21 (single isomer, unassigned) [Example 286]"
12,< 50,"COc1ncccc1C1(N2C[C@H](O)C[C@H]2C(=O)N(C)C)C(=O)N(S(=O)(=O)c2cccc3cccnc23)c2ccc(Cl)cc21 (single isomer, unassigned) [Example 288]"
13,50 to 500,"COc1ccccc1C1(N2C[C@H](O)C[C@H]2C(=O)N(C)C)C(=O)N(S(=O)(=O)c2cc(Br)c(Cl)s2)c2ccc(Cl)cc21 (stereo partly drawn) [Example 33, (2S,4R)-1-[1-(4-Bromo-5-chloro-thiophene-2-sulfonyl)-5-chloro-3-(2-methoxy-phenyl)-2-oxo-2,3-dihydro-1H-indol-3-yl]-4-hydroxy-pyrrolidine-2-carboxylic acid dimethylamide trifluoroacetate]"
14,> 500,"COc1ccccc1C1(N2C[C@H](O)C[C@H]2C(=O)N(C)C)C(=O)N(S(=O)(=O)c2cnc(Cl)c(Br)c2)c2ccc(Cl)cc21 (stereo partly drawn) [Example 59, (2S,4R)-1-[5-Chloro-1-(5-bromo-6-chloropyridine-3-sulfonyl)-3-(2-methoxy-phenyl)-2-oxo-2,3-dihydro-1H-indol-3-yl]-4-hydroxy-pyrrolidine-2-carboxylic acid dimethylamide]"
15,> 500,"COc1ccc(S(=O)(=O)N2C(=O)C(OC(=O)Nc3ccc(Cl)cc3)(c3sccc3C)c3cc(Cl)ccc32)c(OC)c1 (stereo not shown) [Example 63, (4-Chloro-phenyl)-carbamic acid 5-chloro-1-(2,4-dimethoxy-benzenesulfonyl)-3-(3-methyl-thiophen-2-yl)-2-oxo-2,3-dihydro-1H-indol-3-ylester]"
16,50 to 500,"COc1ccccc1C1(OC(=O)N2CCCCC2)C(=O)N(S(=O)(=O)c2cccc3cccnc23)c2ccc(Cl)cc21 (stereo not shown) [Example 65, Piperidine-1-carboxylic acid 5-chloro-3-(2-methoxy-phenyl)-2-oxo-1-(quinoline-8-sulfonyl)-2,3-dihydro-1H-indol-3-yl ester]"
17,< 50,"COc1ccccc1C1(OC(=O)N2CCN(C3CCN(C)CC3)CC2)C(=O)N(S(=O)(=O)c2cccc3cccnc23)c2ccc(Cl)cc21 (stereo not shown) [Example 75, 4-(1-Methyl-piperidin-4-yl)-piperazine-1-carboxylic acid 5-chloro-3-(2-methoxy-phenyl)-2-oxo-1-(quinoline-8-sulfonyl)-2,3-dihydro-1H-indol-3-yl ester bismethanesulfonate]"
